Test results from publication PMC7515950, “Physiologically based pharmacokinetic modeling to assess metabolic drug–drug interaction risks and inform the drug label for fedratinib” (Cancer Chemotherapy and Pharmacology, 2020).

Columns and labels:
[1] = Clinical single-dose PK of fedratinib in healthy subjects; assay type: in vivo, human; conditions: corresponding to dose-normalized AUC of 30 ng·h/(mL·mg)
Description: First, the developed PBPK model was verified against clinical observations in healthy subjects administered single doses of 300 mg fedratinib alone without further modifications. Second, the developed PBPK model was verified against clinical data under repeated dosing scenarios. As no repeated-dosing studies have been conducted in healthy volunteers, the model verification was conducted using the clinical PK profiles from myelofibrosis (MF) patients administered repeated doses of 300, 400, or 500 mg fedratinib once a day (QD). Third, the PBPK model of fedratinib was verified against the clinical data observed in healthy volunteers co-dosed with fedratinib (300 mg, single dose) and ketoconazole (200 mg BID).
AUC refers to AUCinf for the single dose scenarios and AUCτ for the repeated QD dose scenarios. The number of subjects (n) = 6 in TDU12620, n = 17 in INT12894, n = 10-11 in ARD11936, and n = 100 in virtual trial simulations, respectively. All model simulations listed in the table were simulated using the default “Healthy Volunteers” and “Cancer” population files provided in Simcyp® (V17R1). The prediction error is calculated using PE = (GMprediction – GMobservation)/GMobservation ×100%, where GM refers to geometric mean. SD refers to standard deviation.

[2] = target: T1, BCRP (Homo sapiens, UniProt Q9UNQ0); test: BCRP inhibition, vesicle-based (TRI0013); assay type: in vitro ADME
T1 sequence (Q9UNQ0 1-655): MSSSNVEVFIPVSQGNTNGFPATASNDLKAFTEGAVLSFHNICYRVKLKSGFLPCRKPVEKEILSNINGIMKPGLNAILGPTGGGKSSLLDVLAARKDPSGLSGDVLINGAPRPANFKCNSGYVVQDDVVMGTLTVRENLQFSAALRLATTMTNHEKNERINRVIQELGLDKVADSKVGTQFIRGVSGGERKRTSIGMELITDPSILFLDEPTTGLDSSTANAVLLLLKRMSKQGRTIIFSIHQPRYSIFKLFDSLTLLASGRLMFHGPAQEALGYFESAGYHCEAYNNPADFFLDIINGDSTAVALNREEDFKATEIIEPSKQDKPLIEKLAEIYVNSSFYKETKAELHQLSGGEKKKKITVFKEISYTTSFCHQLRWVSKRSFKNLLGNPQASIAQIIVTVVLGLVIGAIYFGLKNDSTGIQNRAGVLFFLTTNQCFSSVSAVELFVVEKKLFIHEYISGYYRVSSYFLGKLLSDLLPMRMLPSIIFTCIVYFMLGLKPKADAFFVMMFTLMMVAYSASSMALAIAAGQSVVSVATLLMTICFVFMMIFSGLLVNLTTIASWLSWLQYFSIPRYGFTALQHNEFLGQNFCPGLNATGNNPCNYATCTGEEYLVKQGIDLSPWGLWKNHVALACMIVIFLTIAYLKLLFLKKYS
From the text: (§1) The reported IC50 values were converted to Ki values using the Cheng-Prusoff equation [10]:
(§2) The transporter inhibition parameters (Ki) for fedratinib were derived from the experimentally determined IC50 values using the Cheng-Prusoff equation, i.e., Ki = IC50/(1+[S]/Km) with the substrate concentrations ([S]) reported in the experimental studies and the substrate Km values collected from literature, as summarized in Table 13.

[3] = target: T2, CYP2C8 (Homo sapiens, UniProt P10632); test: CYP inhibition in human liver microsomes (MIH0887), CYP2C8; assay type: in vitro ADME; conditions: HLM, apparent Ki, reversible inhibition
T2 construct: from tissue; host or cells: human liver microsomes
T2 sequence (P10632 1-490): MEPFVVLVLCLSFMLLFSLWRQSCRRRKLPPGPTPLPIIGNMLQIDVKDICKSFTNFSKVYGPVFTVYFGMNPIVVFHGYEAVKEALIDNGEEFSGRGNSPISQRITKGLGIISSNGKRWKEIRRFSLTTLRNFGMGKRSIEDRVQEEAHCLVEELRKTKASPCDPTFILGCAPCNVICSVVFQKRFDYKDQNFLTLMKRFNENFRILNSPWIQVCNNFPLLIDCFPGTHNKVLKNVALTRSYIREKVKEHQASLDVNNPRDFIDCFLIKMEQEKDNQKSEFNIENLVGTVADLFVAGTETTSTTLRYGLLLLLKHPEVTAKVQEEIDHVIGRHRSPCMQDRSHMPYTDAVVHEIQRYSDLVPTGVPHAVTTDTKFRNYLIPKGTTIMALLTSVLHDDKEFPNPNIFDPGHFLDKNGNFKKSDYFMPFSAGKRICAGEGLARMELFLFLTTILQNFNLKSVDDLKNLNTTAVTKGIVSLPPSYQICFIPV
Description: The CYP enzyme reverse inhibition and mechanism-based inhibition (MBI) parameters were estimated in the human liver microsome (HLM) incubation in vitro studies. The reported reversible inhibition parameter (i.e., apparent Ki) values for CYP2C8, CYP2C9, and CYP2D6, along with the MBI parameters (i.e., KI or Kapp and kinact) for CYP2C19 and CYP3A4, were supplied to the PBPK DDI model (see Table 2).

[4] = target: T3, OATP1B1 (Homo sapiens, UniProt Q9Y6L6); test: OATP1B1 inhibition, HEK-hOATP1B1 cells (TRE0075); assay type: in vitro ADME; parameters: expressed in transfected cells; host or cells: HEK^TR-hOATP1B1
T3 sequence (Q9Y6L6 1-691): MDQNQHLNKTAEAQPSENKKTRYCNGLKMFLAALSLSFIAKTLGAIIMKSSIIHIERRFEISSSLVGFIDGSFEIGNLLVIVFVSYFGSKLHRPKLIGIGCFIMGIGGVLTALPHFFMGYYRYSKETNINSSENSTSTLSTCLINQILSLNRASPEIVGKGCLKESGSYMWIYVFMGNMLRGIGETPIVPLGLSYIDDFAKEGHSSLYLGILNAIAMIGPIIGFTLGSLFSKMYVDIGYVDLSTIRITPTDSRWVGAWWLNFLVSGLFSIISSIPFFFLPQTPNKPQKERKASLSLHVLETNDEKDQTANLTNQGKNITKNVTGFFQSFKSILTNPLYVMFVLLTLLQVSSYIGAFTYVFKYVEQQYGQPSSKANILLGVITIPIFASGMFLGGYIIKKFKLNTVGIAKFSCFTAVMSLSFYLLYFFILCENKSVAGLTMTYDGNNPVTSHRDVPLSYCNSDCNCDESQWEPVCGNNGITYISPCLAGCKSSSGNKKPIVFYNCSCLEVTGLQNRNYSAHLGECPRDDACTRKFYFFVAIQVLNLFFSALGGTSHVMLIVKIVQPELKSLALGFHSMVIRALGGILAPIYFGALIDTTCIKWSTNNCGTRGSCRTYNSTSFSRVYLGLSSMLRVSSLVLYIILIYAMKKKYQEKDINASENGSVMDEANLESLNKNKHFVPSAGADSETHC
From the text: as §1, §2

[5] = Biliary excretion in bile-duct cannulated rats (PDM-07-10348-059); assay type: in vivo; conditions: iv 5 mg/kg
From the text: The biliary excretion of unchanged drug accounts for 2.3% of the total intravenous dose in bile-duct cannulated (BDC) rats.

CL/F [1]: 33.3 L/h
Ki ([2]; from IC50 by Cheng-Prusoff, probe methotrexate): 27.8 µM
IC50 ([2]; probe methotrexate 100 μM): 29.9 µM
Ki [3]: 50.4 µM
Ki ([4]; from IC50 by Cheng-Prusoff, probe estradiol-17β-glucuronide): 14.6 µM
IC50 ([4]; probe estradiol-17β-glucuronide 1 μM): 16.4 µM
biliary excretion of unchanged drug, percent of total intravenous dose [5]: 2.3%
Compound: Cc1cnc(Nc2ccc(OCCN3CCCC3)cc2)nc1Nc1cccc(S(=O)(=O)NC(C)(C)C)c1 [Fedratinib]
